Measurements as given in PubChem BioAssay AID1259411 (Chemical Carcinogenesis Research Information System (CCRIS), 2018).
Activity calls are given as the source filed them. The rule behind the calls is not given here.

Tested on: rodent carcinogenicity bioassays, tumor incidence
Test: CCRIS carcinogenicity studies
Outline: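 Archive of carcinogenicity, mutagenicity, tumor promotion and tumor inhibition results drawn from journals, NCI reports and other sources, expert-reviewed; covers 1985-2011 and is no longer updated.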

With `COc1cc2c(c3oc(=O)c4c(c13)CCC4=O)[C@@H]1C=CO[C@@H]1O2` the carcinogen call (Species: FISH, Strain/Sex: COHO SALMON, Route: DIET, Dose: 0, 40 PPB IN DIET FOR 4 WK (STUDY DURATION: 12 MO)) was “inactive; negative”, the carcinogen call (Species: FISH, Strain/Sex: COHO SALMON, Route: DIET, Dose: 0, 5000 PPB FOR 3 WK (STUDY DURATION: 12 MO)) was “inactive; negative” and the carcinogen call (Species: FISH, Strain/Sex: COHO SALMON, Route: IMMERSION, Dose: 0, 0.5 PPM AQUEOUS SOLUTION FOR 30 MIN EXPOSURE OF EMBRYOS 4-5 D BEFORE HATCHING (STUDY DURATION: 12 MO)) was “inactive; negative”. For the same compound, the carcinogen call (Species: FISH, Strain/Sex: MT. SHASTA RAINBOW TROUT, Route: IMMERSION, Dose: 0, 0.5 PPM AQUEOUS SOLUTION FOR 15 MIN EXPOSURE OF EMBRYOS 4-5 D BEFORE HATCHING (STUDY DURATION: 12 MO), Tumor Site: Type of Lesion: LIVER: HEPATOCELLULAR CARCINOMA) was “active; positive”, the carcinogen call (Species: FISH, Strain/Sex: MT. SHASTA RAINBOW TROUT, Route: ORAL, Dose: 0, 20 PPB IN DIET FOR 4 WK (STUDY DURATION: 12 MO), Tumor Site: Type of Lesion: LIVER: HEPATOCELLULAR CARCINOMA) was “active; positive” and the carcinogen call (Species: FISH, Strain/Sex: RAINBOW TROUT, Route: ORAL, Dose: 0, 1.5, 7.5 UG/DIET FOR 5.5 MO (STUDY DURATION: 5.5 MO), Dose: 0, 1.5, 7.5 UG/DIET FOR 5.5 MO (STUDY DURATION: 5.5 MO), Tumor Site: Type of Lesion: LIVER: HEPATOMA) was “active; positive”. The carcinogen call (Species: FISH, Strain/Sex: RAINBOW, Route: DIET, Dose: 0, 6 PPB FOR UP TO 1 YR, Tumor Site: Type of Lesion: LIVER: HEPATOCELLULAR CARCINOMA) was “active; positive”, the carcinogen call (Species: FISH, Strain/Sex: SHASTA RAINBOW TROUT/MALE, FEMALE, Route: IMMERSION, Dose: 0, 0.01, 0.025, 0.05, 0.1, 0.25, 0.5 PPM SOLUTION IN WATER FOR 1 HR EXPOSURE OF EMBRYOS (STUDY DURATION: 13 MO), Dose: 0, 0.01, 0.025, 0.05, 0.1, 0.25, 0.5 PPM SOLUTION IN WATER FOR 1 HR EXPOSURE OF EMBRYOS (STUDY DURATION: 13 MO), Tumor Site: Type of Lesion: LIVER: TUMOR) was “active; positive” and the carcinogen call (Species: FISH, Strain/Sex: SHASTA RAINBOW TROUT/MALE, FEMALE, Route: ORAL, Dose: 0, 4, 8, 16, 32, 64 PPB IN DIET FOR 2 WK FOLLOWED BY CONTROL DIET FOR THE DURATION OF STUDY (STUDY DURATION: 9 MO), Dose: 0, 4, 8, 16, 32, 64 PPB IN DIET FOR 2 WK FOLLOWED BY CONTROL DIET FOR THE DURATION OF STUDY (STUDY DURATION: 9 MO), Tumor Site: Type of Lesion: LIVER: TUMOR) was “active; positive”. For the same compound, the carcinogen call (Species: HUMAN, Route: ORAL, Tumor Site: Type of Lesion: LIVER) was “active; positive”, the carcinogen call (Species: MONKEY, Strain/Sex: AFRICAN GREEN/MALE,FEMALE, Route: INTRAPERITONEAL, Dose: 99-134 MG TOTAL DOSE, 1/WK FOR AT LEAST 2 YR, Tumor Site: Type of Lesion: LIVER: CARCINOMA, HEMANGIOENDOTHELIAL SARCOMA, GALL BLADDER (BILE DUCT): ADENOCARCINOMA, PANCREAS: HEMANGIOENDOTHELIAL S, Tumor Site: Type of Lesion: LIVER: CARCINOMA, HEMANGIOENDOTHELIAL SARCOMA, GALL BLADDER (BILE DUCT): ADENOCARCINOMA, PANCREAS: HEMANGIOENDOTHELIAL S) was “active; positive” and the carcinogen call (Species: MONKEY, Strain/Sex: AFRICAN GREEN/MALE,FEMALE, Route: ORAL, Dose: 99-134 MG TOTAL DOSE, 1/WK FOR AT LEAST 2 YR, Tumor Site: Type of Lesion: LIVER: CARCINOMA, HEMANGIOENDOTHELIAL SARCOMA, GALL BLADDER (BILE DUCT): ADENOCARCINOMA, PANCREAS: HEMANGIOENDOTHELIAL S, Tumor Site: Type of Lesion: LIVER: CARCINOMA, HEMANGIOENDOTHELIAL SARCOMA, GALL BLADDER (BILE DUCT): ADENOCARCINOMA, PANCREAS: HEMANGIOENDOTHELIAL S) was “active; positive”. The carcinogen call (Species: MONKEY, Strain/Sex: CYNOMOLGUS/MALE,FEMALE, Route: INTRAPERITONEAL, Dose: 99-134 MG TOTAL DOSE, 1/WK FOR AT LEAST 2 YR, Tumor Site: Type of Lesion: LIVER: CARCINOMA, HEMANGIOENDOTHELIAL SARCOMA, GALL BLADDER (BILE DUCT): ADENOCARCINOMA, PANCREAS: HEMANGIOENDOTHELIAL S, Tumor Site: Type of Lesion: LIVER: CARCINOMA, HEMANGIOENDOTHELIAL SARCOMA, GALL BLADDER (BILE DUCT): ADENOCARCINOMA, PANCREAS: HEMANGIOENDOTHELIAL S) was “active; positive”, the carcinogen call (Species: MONKEY, Strain/Sex: CYNOMOLGUS/MALE,FEMALE, Route: ORAL, Dose: 99-134 MG TOTAL DOSE, 1/WK FOR AT LEAST 2 YR, Tumor Site: Type of Lesion: LIVER: CARCINOMA, HEMANGIOENDOTHELIAL SARCOMA, GALL BLADDER (BILE DUCT): ADENOCARCINOMA, PANCREAS: HEMANGIOENDOTHELIAL S, Tumor Site: Type of Lesion: LIVER: CARCINOMA, HEMANGIOENDOTHELIAL SARCOMA, GALL BLADDER (BILE DUCT): ADENOCARCINOMA, PANCREAS: HEMANGIOENDOTHELIAL S) was “active; positive” and the carcinogen call (Species: MONKEY, Strain/Sex: RHESUS/MALE,FEMALE, Route: INTRAPERITONEAL, Dose: 99-134 MG TOTAL DOSE, 1/WK FOR AT LEAST 2 YR, Tumor Site: Type of Lesion: LIVER: CARCINOMA, HEMANGIOENDOTHELIAL SARCOMA, GALL BLADDER (BILE DUCT): ADENOCARCINOMA, PANCREAS: HEMANGIOENDOTHELIAL S, Tumor Site: Type of Lesion: LIVER: CARCINOMA, HEMANGIOENDOTHELIAL SARCOMA, GALL BLADDER (BILE DUCT): ADENOCARCINOMA, PANCREAS: HEMANGIOENDOTHELIAL S) was “active; positive”. The carcinogen call (Species: MONKEY, Strain/Sex: RHESUS/MALE,FEMALE, Route: ORAL, Dose: 99-134 MG TOTAL DOSE, 1/WK FOR AT LEAST 2 YR, Tumor Site: Type of Lesion: LIVER: CARCINOMA, HEMANGIOENDOTHELIAL SARCOMA, GALL BLADDER (BILE DUCT): ADENOCARCINOMA, PANCREAS: HEMANGIOENDOTHELIAL S, Tumor Site: Type of Lesion: LIVER: CARCINOMA, HEMANGIOENDOTHELIAL SARCOMA, GALL BLADDER (BILE DUCT): ADENOCARCINOMA, PANCREAS: HEMANGIOENDOTHELIAL S) was “active; positive”, the carcinogen call (Species: MOUSE, Route: INTRAPERITONEAL, Tumor Site: Type of Lesion: LIVER) was “active; positive” and the carcinogen call (Species: MOUSE, Route: INTRAPERITONEAL, Tumor Site: Type of Lesion: LUNG) was “active; positive”. The carcinogen call (Species: MOUSE, Strain/Sex: DDK/FEMALE, Route: TRANSPLACENTAL, Dose: 0, 20, 40, 80, 120 MG/KG ADMINISTERED INTRAPERITONEALLY TO MOTHERS ON DAY 14 OF GESTATION AND OFFSPRING OBSERVED FOR 12, Dose: 0, 20, 40, 80, 120 MG/KG ADMINISTERED INTRAPERITONEALLY TO MOTHERS ON DAY 14 OF GESTATION AND OFFSPRING OBSERVED FOR 12) was “inactive; negative”, the carcinogen call (Species: MOUSE, Strain/Sex: DDK/FEMALE, Route: TRANSPLACENTAL, Dose: 0, 40 MG/KG ADMINISTERED INTRAPERITONEALLY TO MOTHERS ON DAY 14 OF GESTATION AND OFFSPRING OBSERVED FOR 6 MO AFTER BIRTH) was “inactive; negative” and the carcinogen call (Species: MOUSE, Strain/Sex: DDK/MALE, Route: TRANSPLACENTAL, Dose: 0, 20, 40, 80, 120 MG/KG ADMINISTERED INTRAPERITONEALLY TO MOTHERS ON DAY 14 OF GESTATION AND OFFSPRING OBSERVED FOR 12, Dose: 0, 20, 40, 80, 120 MG/KG ADMINISTERED INTRAPERITONEALLY TO MOTHERS ON DAY 14 OF GESTATION AND OFFSPRING OBSERVED FOR 12, Tumor Site: Type of Lesion: LIVER: TUMOR) was “active; positive”. For the same compound, the carcinogen call (Species: MOUSE, Strain/Sex: DDK/MALE, Route: TRANSPLACENTAL, Dose: 0, 40 MG/KG ADMINISTERED INTRAPERITONEALLY TO MOTHERS ON DAY 14 OF GESTATION AND OFFSPRING OBSERVED FOR 6 MO AFTER BIRTH, Tumor Site: Type of Lesion: LIVER: TUMOR) was “active; positive”, the carcinogen call (Species: RAT, Route: INTRAPERITONEAL, ORAL, Tumor Site: Type of Lesion: LIVER) was “active; positive” and the carcinogen call (Species: RAT, Strain/Sex: F344/MALE, Route: ORAL, Dose: 0, 50 PPB IN AGAR BASED SEMISYNTHETIC DIET FOR STUDY DURATION (STUDY DURATION: 17 MO), Tumor Site: Type of Lesion: LIVER: HEPATOCELLULAR CARCINOMA) was “active; positive”. The carcinogen call (Species: RAT, Strain/Sex: F344/MALE, Route: ORAL, Dose: 50 PPB IN DIET 2/WK FOR 12 MO, Tumor Site: Type of Lesion: LIVER: HEPATOCELLULAR CARCINOMA) was “active; positive”, the carcinogen call (Species: RAT, Strain/Sex: SPRAGUE-DAWLEY, Route: DIET, Dose: 0, 25 UG/D FOR 15 DOSES, Tumor Site: Type of Lesion: LIVER: HEPATOCELLULAR CARCINOMA) was “active; positive” and the carcinogen call (Species: TROUT, Strain/Sex: MT. SHASTA RAINBOW, Route: ORAL, Dose: 4 PPB IN DIET FOR 12 MO, Tumor Site: Type of Lesion: LIVER: HEPATOMA) was “active; positive”. The carcinogen call (Species: TROUT, Strain/Sex: MT. SHASTA RAINBOW, Route: ORAL, Dose: 20 PPB IN DIET FOR 12 MO, Tumor Site: Type of Lesion: LIVER: HEPATOCELLULAR CARCINOMA) was “active; positive”.
